# Test results from US20120141491A1, “METHODS AND COMPOSITIONS FOR THE TREATMENT OF CANCERS AND PATHOGENIC INFECTIONS” (priority 2009, published 2012).
# Entries after “also recorded” stand apart in the source; their conditions may differ. Read-outs that look alike come from different tables or passages of the source.
# What was measured:
# Format in all cases: cell-based
# NeuT cells = tested on: NeuT cells
# Method: (§1) FIGS. 3A-3E. Effects of Bcl-XL targeted small compounds on the autophagy response and cell survival in NeuT cells. The positions of C4 in Site 1 (FIG. 3A), and C9 in Site 2 (FIG. 3B) of Bcl-xl are shown by in silico molecular docking. NeuT (Her2-positive breast cancer cell line) cells expressing GFP-LC3 were incubated in enriched (Fed) medium in the presence of C4 (FIG. 3C) and C9 (FIG. 3D) Bcl-targeted compounds. GFP-LC3 is found on autophagic vacuole that appear as dots (arrows). In FIG. 3E, the survival of NeuT cells was quantified after 20h of treatment with 0.1-1000 μM of Site 1 (C2 and C4) and Site 2 (C7 and C9) compounds.
# (§2) Cell survival is suppressed by Bcl2-targeted compounds: Next, we examined the effects of the Bcl-xl targeted compounds C2, C4, C7, and C9 on autophagy and cell death in Her2/Neu-positive NeuT breast carcinoma cells (FIGS. 3A-E).
# protein degradation = experiment: Protein degradation by pulse-chase methods using 14C-valine; conditions: for Rates of protein degradation (FIG. 5B): 14C-valine pulse-chase, compared to a control compound, n=6; for Stimulate Protein Degradation: Table 1; for Proteolysis, bar coding of FIG. 5A: black bar stimulated, striped bar inhibited
# Method: (§3) FIGS. 5A-5C. Characterization of proBeclin 1 compounds. Upon ranking 100 NCl compounds by in silico docking to Bcl-xl, the autophagy responses were evaluated in fed Saos-2 cells expressing GFP-LC3 (FIG. 5A). […] Cells were maintained in nutrient-rich medium in the absence and presence of Bcl-targeted compounds for 4 hr. The cells were then solubilized, Beclin 1 complex immunoprecipitated, and the Beclin 1 hound proteins identified by Western blotting (FIG. 5C). The IgG-LC is the immunoglobin light chain of the anti-Beclin 1 antibody that was used to immunoprecipitate the complex. The absence of Bcl-xl is indicative of an inhibition of Beclin 1 binding.
# (§4) When autophagy is suppressed, GFP-LC3 distributes uniformly throughout the cellular cytoplasm (FIG. 4A). Autophagy response can be observed by visualizing the punctuate pattern of GFP-LC3 indicative of the presence of autophagic vacuoles. We can also use tandem-labeled LC3, RFP-GFP-LC3 to better assess the dynamics of the autophagy response by visualizing both autophagosomes and autolysosomes (FIG. 4D-4F). […] To further substantiate that the accumulation of GFP-LC3 structures is not due to a blockage of basal autophagy but the positive effects of the compounds on the autophagy response, the autophagy response is validated by quantitative protein turnover measures using radiolabeled amino acids (FIG. 5B). Finally, we determine whether the compound interferes with Beclin 1 binding to Bcl-xl (FIG. 5C) and Bcl-2 as we would suspect if the compound acts through the intended novel mechanism of action.
# [1] = tested on: Saos-2 osteosarcoma cells expressing GFP-LC3; experiment: Autophagy response by punctate localization of GFP-LC3 to autophagic vacuoles, fluorescence microscopy; conditions: for Stimulation of autophagy compared with amino acid and serum starved cells (FIG. 2G): 100 μM; for Stimulation of autophagy compared with amino acid and serum starved cells (FIG. 2G) / Enhancement of autophagy (GFP-LC3 at autophagic vacuoles): enriched (Fed) medium; for Activate Autophagy Response: Table 1; for Induction of autophagy: Table 2; for Localization of GFP-LC3 to autophagic vacuoles (FIG. 4): 100 mM Bcl-targeted compounds, fed Saos2 cells
# Method: FIGS. 2A-2G. Activation of autophagy by Bcl-XL targeting compounds. The positions of C2 in Site 1 (FIG. 2A), C5 in Site 1 (FIG. 2B), and C8 in Site 2 (FIG. 2C) of Bcl-xl are shown by in silico molecular docking. Saos-2 osteosarcoma cells expressing GFP-LC3 were incubated in enriched (Fed) medium in the presence of C2 (FIG. 2D), C5 (FIG. 2E) and C8 (FIG. 2F) Bcl-targeted compounds. GFP-LC3 is found diffuse throughout the cytosol and nucleus when autophagy is suppressed. Ongoing autophagy can be visualized by the presence of GFP-LC3 at autophagic vacuoles (AVs) that appear as dots (arrows). […] In FIG. 2E, Saos-2 osteosarcoma cells expressing GFP-LC3 were incubated in enriched (Fed) medium in the absence and presence of Bcl-targeted compounds or in medium lacking amino acids and serum (Starved).
# (§5) FIG. 4A-4F. Activation of autophagy by Bcl-targeted compounds. The localization of GFP-LC3 to autophagic vacuoles was enhanced by […] Bcl-targeted compounds in Saos-2 osteosarcoma cells. The autophagy response in fed Saos2 cells was measured in the absence and presence of anti-Bcl compounds by visualizing the punctate localization of GFP-LC3 (FIGS. 4A-4C) and RFP-GFP-LC3 (FIGS. 4D-4F) to autophagic vacuoles. In untreated fed cells, the GFP-LC3 is localized uniformly throughout the cell. […] Autophagy in cells expressing RFP-GFP-LC3 (FIGS. 4D-4F) was activated with compound B2-1. Structures containing RFP (red, FIG. 4D) and GFP (green, FIG. 4E) are autophagosomes (arrow), while RFP (red, FIG. 4D) structures are autolysosomes (arrowhead).
# as §3
# This was done in Saos-2 osteosarcoma cells stably expressing the autophagosome marker, GFP-LC3. In fed cells not undergoing autophagy GFP-LC3 is a soluble protein found throughout the cytosol. In amino acid and serum starved cells, autophagy is activated and GFP-LC3 becomes associated with autophagic vacuoles that can be visualize by fluorescence microscopy.
# as §4
# Beclin 1/Bcl binding = Beclin 1/Bcl binding by immunoprecipitation with anti-Beclin 1 antibodies and Western blotting; conditions: for Inhibit Beclin 1 Binding: Table 1; for Beclin 1 binding to Bcl-xl / Bcl proteins: nutrient-rich medium, 4 hr
# From the text: FIGS. 5A-5C. Characterization of proBeclin 1 compounds. […] Cells were maintained in nutrient-rich medium in the absence and presence of Bcl-targeted compounds for 4 hr. The cells were then solubilized, Beclin 1 complex immunoprecipitated, and the Beclin 1 hound proteins identified by Western blotting (FIG. 5C). The IgG-LC is the immunoglobin light chain of the anti-Beclin 1 antibody that was used to immunoprecipitate the complex.
# Autophagy response can be observed by visualizing the punctuate pattern of GFP-LC3 indicative of the presence of autophagic vacuoles. We can also use tandem-labeled LC3, RFP-GFP-LC3 to better assess the dynamics of the autophagy response by visualizing both autophagosomes and autolysosomes (FIG. 4D-4F). […] Finally, we determine whether the compound interferes with Beclin 1 binding to Bcl-xl (FIG. 5C) and Bcl-2 as we would suspect if the compound acts through the intended novel mechanism of action.
# [2] = tested on: NeuT (Her2-positive breast cancer cell line) cells expressing GFP-LC3; experiment: Autophagy response by GFP-LC3 localization in NeuT cells; conditions: enriched (Fed) medium
# Method: as §1, §2
# [3] = tested on: Saos2 cells expressing RFP-GFP-LC3; experiment: Autophagy flux with tandem-labeled RFP-GFP-LC3 (autophagosomes and autolysosomes); conditions: fed Saos2 cells; listed as B2-1
# Method: as §5
# When autophagy is suppressed, GFP-LC3 distributes uniformly throughout the cellular cytoplasm (FIG. 4A). Autophagy response can be observed by visualizing the punctuate pattern of GFP-LC3 indicative of the presence of autophagic vacuoles. […] To further substantiate that the accumulation of GFP-LC3 structures is not due to a blockage of basal autophagy but the positive effects of the compounds on the autophagy response, the autophagy response is validated by quantitative protein turnover measures using radiolabeled amino acids (FIG. 5B). […]
SMILES,Induction of cell death (NeuT cells),Stimulate Protein Degradation (protein degradation),"Proteolysis, bar coding of FIG. 5A (protein degradation)",Activate Autophagy Response [1],Induction of autophagy [1],Inhibit Beclin 1 Binding (Beclin 1/Bcl binding),Stimulation of autophagy compared with amino acid and serum starved cells (FIG. 2G) [1],Localization of GFP-LC3 to autophagic vacuoles (FIG. 4) [1],Enhancement of autophagy (GFP-LC3 at autophagic vacuoles) [1],Beclin 1 binding to Bcl-xl / Bcl proteins (Beclin 1/Bcl binding),Autophagy in NeuT cells [2],other results
"CCCCC(CC)CN1CN(CC(CC)CCCC)CC(C)(N)C1 (stereo not drawn) [NSC17764, 5-pyrimidinamine, 1,3-bis(2-ethylhexyl)hexhydro-5-methyl-]",causes cell death,No,inhibited,Yes,Induces,No,,,,,,Rates of protein degradation (FIG. 5B) (protein degradation; listed as Bx-11): suppressed protein degradation; also recorded: inhibit protein degradation; Stimulation of autophagy compared with amino acid and serum starved cells (FIG. 2G) ([1]; listed as C5): promote autophagy; also recorded: stimulated autophagy to levels seen in amino acid and serum starved cells; Enhancement of autophagy (GFP-LC3 at autophagic vacuoles) ([1]; listed as Bx-11): promotes an accumulation of GFP-LC3 structures; also recorded: promote the accumulation of autophagic vacuoles; Enhancement of autophagy (GFP-LC3 at autophagic vacuoles) ([1]; listed as C5): enhanced autophagy
Nc1c(/N=N/c2ccc(S(=O)(=O)Nc3cnccn3)cc2)cc(S(=O)(=O)O)c2ccccc12 [NSC31331],,,,Yes,Induces autophagy,Yes,promote autophagy,autophagic vacuoles are visualize as dots or ring-like structures,stimulate autophagy,interfere with Beclin 1 binding,induced autophagy,Rates of protein degradation (FIG. 5B) (protein degradation): elevated
O=C(C[N+]12CN3CN(CN(C3)C1)C2)c1ccc2ccccc2c1.[Br-] [NSC36400],,,,Yes,Induces autophagy,No,promote autophagy,,,,enhanced autophagy,"Induction of cell death (NeuT cells; Table 2, cells not given): causes cell death"
"CN(C)CCCN1CC2CCCCC2C1 (stereo not drawn) [NSC43537, 3-(1,3,3a,4,5,6,7,7a-octahydroisoindol-2-yl)-N,N-dimethylpropan-1-amine]",,Yes,stimulated proteolysis,Yes,NSC 43537 Induces autophagy; not tested for the induction of cell death,Yes,,,stimulate autophagy,inhibiting Beclin 1 binding,,Rates of protein degradation (FIG. 5B) (protein degradation; listed as B2-1): elevated; also recorded: stimulate; Autophagy / autophagy flux in cells expressing RFP-GFP-LC3 [3]: activated; also recorded: autophagy flux is enhanced
Nc1nc(S)c2ncn(C3CC(O)C(COP(=O)(O)O)O3)c2n1 (stereo not drawn) [NSC94668],causes cell death,Yes,,Yes,Induces autophagy,No,promote autophagy,autophagic vacuoles are visualize as dots or ring-like structures,activate autophagy,,enhanced autophagy,Rates of protein degradation (FIG. 5B) (protein degradation; listed as Bx-22): elevated; also recorded: activate; Beclin 1 binding to Bcl-xl / Bcl proteins (Beclin 1/Bcl binding; listed as Bx-22): did not; also recorded: do not appear to affect Beclin 1 binding
